The record followed here is patent US12679811B2, “Microcrystalline diketopiperazine compositions and methods” (MannKind Corporation, priority 2013, dated 2026).

This data set can be described thus: Solubility of FDKP as a function of pH. Type of data set: physicochemical.

`O=C(O)/C=C/C(=O)NCCCCC1NC(=O)C(CCCCNC(=O)/C=C/C(=O)O)NC1=O` (centres unmarked) [FDKP, 3,6-bis(N-fumaryl-4-aminobutyl)-2,5-diketopiperazine]: the solubility entry is recorded as “readily soluble” (at neutral or basic pH) and “low solubility” (in acid).
